Columns and labels:
SCD5 = target: T1, SCD5 (Homo sapiens, UniProt Q86SK9); test: Growth inhibition of humanized yeast strain expressing SCD5 as sole desaturase; type: cell-based
T1 construct: host or cells: S. cerevisiae ole1Δ strain (W303 pdr1Δ pdr3Δ background), plasmid pRS316 with TDH3 promoter and CYC1 terminator
T1 sequence (Q86SK9 1-330): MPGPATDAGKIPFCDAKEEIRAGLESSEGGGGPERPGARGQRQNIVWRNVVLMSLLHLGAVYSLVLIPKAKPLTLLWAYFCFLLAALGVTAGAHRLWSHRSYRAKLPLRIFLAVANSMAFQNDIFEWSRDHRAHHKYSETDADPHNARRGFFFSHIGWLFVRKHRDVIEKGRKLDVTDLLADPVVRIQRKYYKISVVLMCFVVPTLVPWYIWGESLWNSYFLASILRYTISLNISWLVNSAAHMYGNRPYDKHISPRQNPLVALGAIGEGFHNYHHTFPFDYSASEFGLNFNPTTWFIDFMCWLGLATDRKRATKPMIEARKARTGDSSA
Procedure, shortened: (§1)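 ole1Δ yeast (W303 pdr1Δ pdr3Δ background) carrying plasmid-borne Ole1, SCD1 or SCD5, grown in uracil-free media; cultures pre-grown in raffinose, seeded at 2× density 0.02 in galactose media with compound. Growth read as OD600 after 24 h at 30° C. for Ole1, 40 h for SCD1/SCD5.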

SCD1 = target: T2, SCD1 (Homo sapiens, UniProt O00767); test: Growth inhibition of humanized yeast strain expressing SCD1 as sole desaturase; type: cell-based
T2 construct: host or cells: S. cerevisiae ole1Δ strain (W303 pdr1Δ pdr3Δ background), plasmid pRS316 with TDH3 promoter and CYC1 terminator
T2 sequence (O00767 1-359): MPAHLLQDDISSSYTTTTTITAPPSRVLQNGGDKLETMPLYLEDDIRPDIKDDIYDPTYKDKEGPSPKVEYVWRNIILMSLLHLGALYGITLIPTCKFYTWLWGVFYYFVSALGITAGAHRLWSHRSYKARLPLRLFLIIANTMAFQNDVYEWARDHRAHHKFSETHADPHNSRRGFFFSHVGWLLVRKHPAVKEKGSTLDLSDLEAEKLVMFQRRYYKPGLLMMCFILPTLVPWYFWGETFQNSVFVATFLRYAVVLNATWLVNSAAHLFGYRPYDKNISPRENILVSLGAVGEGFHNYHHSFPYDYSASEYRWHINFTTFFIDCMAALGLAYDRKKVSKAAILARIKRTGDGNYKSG
Procedure, shortened: as §1

[1] = growth inhibition of humanized yeast strain expressing human SCD5
[2] = growth inhibition of humanized yeast strain expressing human SCD1
[3] = humanized yeast strain expressing SCD5
[4] = humanized yeast strain expressing SCD1

Row | SMILES | IC50 (SCD5; humanized yeast strain, 40 h) | IC50 (SCD1; humanized yeast strain, 40 h) | also measured
1 | Fc1c(-c2nc(C3CCNCC3)no2)ccc2cnn(C3COC3)c12 [Compound 989] | > 45000 nM | > 45 µM | –
2 | CC(C)n1ncc2ccc(-c3noc(C4(F)CCN(C(=O)CC5(C)CC5)CC4)n3)cc21 [Compound 623] | – | – | IC50 (SCD5; [1]): 854 nM; IC50 (SCD1; [2]): > 45 µM
3 | O=C(OC1CC1)N1CCN(c2nc(-c3ccc4cnn(C5COC5)c4c3)no2)CC1 [Compound 642] | – | – | IC50 (SCD5; [1]): 211 nM; IC50 (SCD1; [2]): > 45 µM
4 | O=C(C1CC1)N1CCC(c2noc(-c3ccnc(NC4COC4)c3)n2)CC1 [Compound 1115] | 10600 nM | > 45 µM | –
5 | COC(=O)N1CCC(c2nnc(-c3ccc4cnn(C(C)C)c4c3)o2)CC1 [Compound 852] | 5360 nM | > 45 µM | –
6 | CC(C)n1ncc2ccc(-c3noc(C4CCNCC4(F)F)n3)cc21 (stereo not shown) [Compound 508] | – | – | IC50 (SCD5; [3]): > 45000 nM; IC50 (SCD1; [4]): > 45 µM
7 | O=C(N1CCC(c2noc(-c3ccnc(C4CCOC4)c3)n2)CC1)C1(F)CCC1 (stereo not shown) [Compound 1097] | 20 nM | > 45 µM | –
8 | CC(C)n1ncc2ccc(-c3noc(C4CCN(C(=O)CN(C)C)CC4)n3)cc21 [Compound 686] | – | – | IC50 (SCD5; [1]): > 45000 nM; IC50 (SCD1; [2]): > 45 µM
9 | CC(C)(C)OC(=O)N1CC=C(c2ccc(-c3ccc4cnn(C5COC5)c4c3)nc2)CC1 [Compound 1010] | 816 nM | > 45 µM | –
10 | CC(C)n1ncc2ccc(-c3noc(C4CCN(C(=O)C56CC(F)(C5)C6)CC4)n3)cc21 [Compound 756] | 4360 nM | > 45 µM | –
11 | CC(C)Nc1cc(-c2nc(N3CCN(C(=O)OC(C)(C)C)CC3)no2)ccn1 [Compound 809] | 124 nM | > 45 µM | –
12 | O=C(N1CCC(c2noc(-c3ccnc(C4CCOC4)c3)n2)CC1)C1(C(F)(F)F)CC1 (stereo not shown) [Compound 1177] | 840 nM | > 45 µM | –
13 | CC(C)(C)CC(=O)N1CCC(c2nc(-c3ccc4cnn(C5CCOC5)c4c3)no2)CC1 (stereo not shown) [Compound 775] | 22 nM | > 45 µM | –
14 | COC(=O)N1CCC(c2nc(-c3ccc4cnn(C(C)C)c4c3)no2)CC1 [Compound 355] | – | – | IC50 (SCD5; [3]): > 45000 nM; SCD5 % Max Inhibition (SCD5; [3]): 3.68%; SCD1 % Max Inhibition (SCD1; [4]): 71.31%
15 | CC(C)(C)OC(=O)N1CCC(c2noc(-c3ccnc(C4CCOC4)c3)n2)CC1 (stereo not shown) [Compound 999] | 10 nM | > 45 µM | –
16 | CC1(OC(=O)N2CCC(c3noc(-c4cc(F)c5cnn(C6COC6)c5c4)n3)CC2)CC1 [Compound 1069] | 0.862 nM | > 45 µM | –
17 | CC(C)(C)OC(=O)N1CCC(c2nc(N3CCC34COC4)no2)CC1 [Compound 783] | > 45000 nM | > 45 µM | –
18 | COC(=O)N1CCC(c2cc(-c3ccc4cnn(C5COC5)c4c3)on2)CC1 [Compound 1027] | 3160 nM | > 45 µM | –
19 | CCC(=O)N1CCC(c2cc(-c3cc4c(cn3)cnn4C(C)C)no2)CC1 [Compound 1089] | 4680 nM | > 45 µM | –
20 | Cc1nn(C)c2cc(-c3noc(C4CCN(C(=O)CN)CC4(F)F)n3)ccc12 (stereo not shown) [Compound 665] | – | – | IC50 (SCD5; [1]): 5010 nM; IC50 (SCD1; [2]): > 45 µM
21 | CC(C)C(=O)N1CCC(c2noc(-c3ccnc(N(C)C4COC4)c3)n2)CC1 [Compound 1155] | > 45000 nM | > 45 µM | –
22 | CC(CF)n1ncc2ccc(-c3noc(C4CCN(C(=O)CC(C)(C)C)CC4)n3)cc21 (stereo not shown) [Compound 583] | – | – | IC50 (SCD5; [3]): 989 nM; IC50 (SCD1; [4]): > 45 µM
23 | O=C(N1CCC(c2cc(-c3cc4c(cn3)cnn4C3COC3)on2)CC1)C1(F)CC1 [Compound 1110] | 10 nM | > 45 µM | –
24 | CC(C)(C)OC(=O)N1CCC(c2noc(-c3cccc(C4CCCO4)c3)n2)CC1 (stereo not shown) [Compound 812] | 10 nM | > 45 µM | –

Row | SMILES | IC50 (SCD5; humanized yeast strain, 40 h) | IC50 (SCD1; humanized yeast strain, 40 h) | also measured
25 | CC(C)(C)OC(=O)N1CCC(c2nc(-c3ccc4cnn(C5CNC5)c4c3)no2)CC1 [Compound 728] | – | – | IC50 (SCD5; [1]): 126 nM; IC50 (SCD1; [2]): > 45 µM
26 | CC(C)OC(=O)N1CCC(c2nc(-c3ccc4cnn(C(C)C)c4c3)no2)CC1 [Compound 357] | – | – | IC50 (SCD5; [3]): > 45000 nM; SCD5 % Max Inhibition (SCD5; [3]): 2.31%; SCD1 % Max Inhibition (SCD1; [4]): 64.32%
27 | CC(C)C(=O)N1CCC(c2noc(-c3ccnc(-c4cnn(C)c4)c3)n2)CC1 [Compound 1187] | > 45000 nM | > 45 µM | –
28 | CC(C)(C)OC(=O)N1CCN(c2nc(-c3ccc4cnn(C5COC5)c4c3)no2)CC1 [Compound 664] | – | – | IC50 (SCD5; [1]): 23 nM; IC50 (SCD1; [2]): 23.5 µM
29 | O=C(C1CC2(CC2)C1)N1CCN(c2noc(-c3ccc4cnn(C5COC5)c4c3)n2)CC1 [Compound 864] | > 45000 nM | > 45 µM | –
30 | CC(C)n1ncc2ccc(-c3nc(C4CN(C(=O)CC(C)(C)C)C4)no3)cc21 [Compound 606] | – | – | IC50 (SCD5; [1]): 737 nM; IC50 (SCD1; [2]): > 45 µM
31 | CC(C)C(=O)N1CC[C@H](c2noc(-c3ccc4cnn(C5COC5)c4c3)n2)C[C@H]1C [Compound 1058] | 3.67 nM | > 45 µM | –
32 | CC(C)n1ncc2ccc(-c3noc(C4CCN(C(=O)CNC(=O)c5ccccc5)CC4(F)F)n3)cc21 (stereo not shown) [Compound 679] | – | – | IC50 (SCD5; [1]): > 45000 nM; IC50 (SCD1; [2]): > 45 µM
33 | COC(=O)N1CCC(c2noc(-c3ccc4cnn(C5CCC(F)(F)C5)c4c3)n2)CC1 (stereo not shown) [Compound 1078] | 33 nM | > 45 µM | –
34 | CC(C)n1ncc2ccc(-c3noc(N4C[C@@H]5CN(C(=O)OC(C)(C)C)C[C@H]5C4)n3)cc21 [Compound 667] | – | – | IC50 (SCD5; [1]): 870 nM; IC50 (SCD1; [2]): > 45 µM
35 | CC(C)(C)OC(=O)N1CCC(c2noc(-c3cnc4cnn(C5COC5)c4c3)n2)CC1 [Compound 1047] | 10 nM | ≥ 45 µM | –
36 | CC(C1CC1)n1ncc2ccc(-c3noc(C4CCN(C(=O)OC(C)(C)C)CC4)n3)cc21 (stereo not shown) [Compound 640] | – | – | IC50 (SCD5; [1]): 3980 nM; IC50 (SCD1; [2]): > 45 µM
37 | CC(C)n1ncc2ccc(-c3noc(N4CCn5ccnc5C4)n3)cc21 [Compound 804] | > 45000 nM | > 45 µM | –
38 | CC(C)n1ncc2ccc(-c3nc(C4CCN(C(=O)c5ncccc5F)CC4)no3)cc21 [Compound 714] | – | – | IC50 (SCD5; [1]): 230 nM; IC50 (SCD1; [2]): > 45 µM
39 | CC(C)n1ncc2ccc(-c3noc(C4CCN(C(=O)C56CC(C5)C6)CC4)n3)cc21 [Compound 705] | – | – | IC50 (SCD5; [1]): 174 nM; IC50 (SCD1; [2]): 14.4 µM
40 | COC(=O)N1CCC(c2noc(-c3ccccc3N3CCOCC3)n2)CC1 [Compound 1169] | > 45000 nM | 15.4 µM | –
41 | Cn1ncc2ccc(-c3noc(C4CCN(C(=O)OC(C)(C)C)CC4)n3)cc21 [Compound 359] | – | – | IC50 (SCD5; [3]): > 45000 nM; SCD5 % Max Inhibition (SCD5; [3]): 0.81%; SCD1 % Max Inhibition (SCD1; [4]): 55.70%
42 | CC(C)(C)OC(=O)N1CCC(c2nc(-c3ccccc3)no2)CC1 [Compound 808] | 5820 nM | > 45 µM | –
43 | Cc1nn(C)c2cc(-c3noc(C4CCN(C(=O)OC(C)(C)C)CC4(F)F)n3)ccc12 (stereo not shown) [Compound 504] | – | – | IC50 (SCD5; [3]): 14800 nM; IC50 (SCD1; [4]): > 45 µM
44 | COC(=O)N1CCC(c2noc(-c3ccc4cnn(C5CCS(=O)(=O)C5)c4c3)n2)CC1 (stereo not shown) [Compound 1077] | 300 nM | > 45 µM | –
45 | CC(C)(C)OC(=O)N1CCC(c2nc(-c3ccc4oc(=O)n(C5COC5)c4c3)no2)CC1 [Compound 649] | – | – | IC50 (SCD5; [1]): 259 nM; IC50 (SCD1; [2]): > 45 µM
46 | CC(C)n1ncc2ccc(-c3nc(C4CN(C(=O)OC(C)(C)C)C4)no3)cc21 [Compound 605] | – | – | IC50 (SCD5; [3]): 513 nM; IC50 (SCD1; [4]): 31.8 µM
47 | COC(=O)N1CCC(c2noc(-c3cc(Br)c4cnn(C5COC5)c4c3)n2)CC1 [Compound 1043] | 11 nM | > 45 µM | –
